Results on 16 compounds are retold here after the supplement of paper PMC4649846.

Some results are limits rather than exact numbers.

Experiment [1] concerns MDA-MB-231. The experiment can be described thus: drug sensitivity score (DSS); higher = more sensitive; extreme values may be limits of the assay. As to conditions: incubation time: 72 h. The protocol: (§1)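 MDA-MB-231 breast cancer cells were transfected with siBRCA1 or non-targeting siControl, then seeded 24 h later at 4000 cells/well in 384-well plates holding 198 drugs at 5 concentrations. Viability was read by CellTiter-Blue after 72 h at 37 °C. Dose-response curves were fitted in Dotmatics to give IC50 and a drug sensitivity score (DSS: area under the curve relative to the area between the 10% threshold and 100% inhibition, normalised by the log of the top response). The dose range is not stated. IC50 values of 8333.3 or 4166.7 nM mark no response (top dose), and 0.8333 nM is the lower limit.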

The subject of experiment [2] is MDA-MB-231. As to conditions: incubation time: 72 h. The protocol:
as §1

Where [3] appears, read: siRNA: siControl (non-targeting).

As for `O=C1CCC(N2C(=O)c3ccccc3C2=O)C(=O)N1` (centres undefined) [Thalidomide], the drug sensitivity score in the experiment with MDA-MB-231 [1] (siRNA: siBRCA1) and with MDA-MB-231 [1] (setting [3]) was 0 in each case. In addition, the “IC50 of cell viability” value with MDA-MB-231 [2] (siRNA: siBRCA1) and in the experiment with MDA-MB-231 [2] (setting [3]) was greater than 4170 nM throughout.

In the case of `COc1ccc(-c2cc3c(C)nc(N)nc3n([C@H]3CC[C@H](OCCO)CC3)c2=O)cn1`, the drug sensitivity score with MDA-MB-231 [1] (siRNA: siBRCA1) worked out at 18.9; in the experiment on MDA-MB-231 [1] (setting [3]), 18.6. Moreover, the “IC50 of cell viability” value with MDA-MB-231 [2] (siRNA: siBRCA1) stood at 125 nM; in the experiment on MDA-MB-231 [2] (setting [3]), 129 nM.

`C[C@@H](C(=O)O)c1ccc(-c2ccccc2)c(F)c1` [Tarenflurbil]: the drug sensitivity score in the experiment on MDA-MB-231 [1] (siRNA: siBRCA1) and in the experiment with MDA-MB-231 [1] (setting [3]) was 0 throughout. Moreover, the “IC50 of cell viability” value in the experiment with MDA-MB-231 [2] (siRNA: siBRCA1) and in the experiment with MDA-MB-231 [2] (setting [3]) was greater than 4170 nM each time.

Consider `COc1cccc2c1C(=O)c1c(O)c3c(c(O)c1C2=O)C[C@@](O)(C(=O)CO)C[C@@H]3O[C@H]1C[C@H](N)[C@H](O)[C@H](C)O1` [Doxorubicin], for which the drug sensitivity score with MDA-MB-231 [1] (siRNA: siBRCA1) was 17.9; in the experiment with MDA-MB-231 [1] (setting [3]) it was 19.6. Also, the results for the “IC50 of cell viability” value in the experiment with MDA-MB-231 [2] (siRNA: siBRCA1) and in the experiment with MDA-MB-231 [2] (setting [3]) were 205 nM and 148 nM, respectively.

With `C[C@@]1(C(=O)Nc2ccc(F)nc2)CCCN1c1nc(Nc2cc(C3CC3)n[nH]2)c2cccn2n1`, the drug sensitivity score in the experiment on MDA-MB-231 [1] (siRNA: siBRCA1) came out at 3.5; with MDA-MB-231 [1] (setting [3]) it was 7.43. Also, the “IC50 of cell viability” value in the experiment with MDA-MB-231 [2] (siRNA: siBRCA1) is greater than 4170 nM; in the experiment with MDA-MB-231 [2] (setting [3]) it was 1190 nM.

On to `C[C@]12C=CC(=O)C=C1CC[C@@H]1[C@@H]2C(=O)C[C@@]2(C)[C@H]1CC[C@]2(O)C(=O)CO` [Prednisone], for which the drug sensitivity score with MDA-MB-231 [1] (siRNA: siBRCA1) and in the experiment with MDA-MB-231 [1] (setting [3]) was 0 each time. Further, the “IC50 of cell viability” value with MDA-MB-231 [2] (siRNA: siBRCA1) and in the experiment on MDA-MB-231 [2] (setting [3]) was greater than 4170 nM throughout.

`O=C(NC[C@H](O)CO)c1ccncc1Nc1ccc(I)cc1F`: the drug sensitivity score stood at 16 in the experiment with MDA-MB-231 [1] (siRNA: siBRCA1) and 17.4 in the experiment with MDA-MB-231 [1] (setting [3]). For the same compound, the “IC50 of cell viability” value is 132 nM in the experiment with MDA-MB-231 [2] (siRNA: siBRCA1) and 50 nM in the experiment on MDA-MB-231 [2] (setting [3]).

In the case of `CC1=C(/C=C/C(C)=C/C=C/C(C)=C/C(=O)O)C(C)(C)CCC1` [Tretinoin], the drug sensitivity score with MDA-MB-231 [1] (siRNA: siBRCA1) stood at 0.0479; with MDA-MB-231 [1] (setting [3]) it was 0. Further, the “IC50 of cell viability” value with MDA-MB-231 [2] (siRNA: siBRCA1) and with MDA-MB-231 [2] (setting [3]) was greater than 4170 nM each time.

For the compound `CNC(=O)c1cc(Oc2ccc(NC(=O)Nc3ccc(Cl)c(C(F)(F)F)c3)c(F)c2)ccn1` [BAY 73-4506], the values for the drug sensitivity score in the experiment on MDA-MB-231 [1] (siRNA: siBRCA1) and in the experiment on MDA-MB-231 [1] (setting [3]) were 4.52 and 2.71, respectively. Further, the “IC50 of cell viability” value is 900 nM in the experiment with MDA-MB-231 [2] (siRNA: siBRCA1) and 813 nM in the experiment on MDA-MB-231 [2] (setting [3]).

`CN1CCN(CCOc2cc(OC3CCOCC3)c3c(Nc4c(Cl)ccc5c4OCO5)ncnc3c2)CC1` [Saracatinib]: the drug sensitivity score in the experiment with MDA-MB-231 [1] (siRNA: siBRCA1) came out at 6.55; in the experiment on MDA-MB-231 [1] (setting [3]), 10.4. Further, the “IC50 of cell viability” value with MDA-MB-231 [2] (siRNA: siBRCA1) was found to be 652 nM; in the experiment on MDA-MB-231 [2] (setting [3]), 90.5 nM.

For the compound `C=C1C[C@@H]2[C@H](CC[C@]3(C)C(=O)CC[C@@H]23)[C@@]2(C)C=CC(=O)C=C12` [Exemestane], the drug sensitivity score in the experiment with MDA-MB-231 [1] (siRNA: siBRCA1) and with MDA-MB-231 [1] (setting [3]) was 0 in each case. For the same compound, the “IC50 of cell viability” value with MDA-MB-231 [2] (siRNA: siBRCA1) and with MDA-MB-231 [2] (setting [3]) was greater than 4170 nM in each case.

Consider `O=S(=O)(c1cccc2cnccc12)N1CCCNCC1` [Fasudil], for which the drug sensitivity score in the experiment with MDA-MB-231 [1] (siRNA: siBRCA1) and in the experiment on MDA-MB-231 [1] (setting [3]) was 0 in each case. Besides, the “IC50 of cell viability” value in the experiment on MDA-MB-231 [2] (siRNA: siBRCA1) and with MDA-MB-231 [2] (setting [3]) was greater than 4170 nM each time.

For the compound `N#CC[C@H](C1CCCC1)n1cc(-c2ncnc3[nH]ccc23)cn1` [Ruxolitinib], the drug sensitivity score in the experiment on MDA-MB-231 [1] (siRNA: siBRCA1) and in the experiment with MDA-MB-231 [1] (setting [3]) was 0 each time. For the same compound, the “IC50 of cell viability” value with MDA-MB-231 [2] (siRNA: siBRCA1) and in the experiment on MDA-MB-231 [2] (setting [3]) was greater than 4170 nM each time.

For `Cc1cc(Nc2cc(CN3CCOCC3)c3nc(C)c(Cc4ccc(Cl)cc4F)n3n2)n[nH]1`, the drug sensitivity score in the experiment on MDA-MB-231 [1] (siRNA: siBRCA1) is 6.15; in the experiment on MDA-MB-231 [1] (setting [3]), 3.18. The “IC50 of cell viability” value in the experiment on MDA-MB-231 [2] (siRNA: siBRCA1) was 1380 nM; in the experiment on MDA-MB-231 [2] (setting [3]) it was greater than 4170 nM.

On to `Cn1cc(C2=C(c3cn(C4CCN(Cc5ccccn5)CC4)c4ccccc34)C(=O)NC2=O)c2ccccc21` [Enzastaurin], for which the drug sensitivity score with MDA-MB-231 [1] (siRNA: siBRCA1) and in the experiment with MDA-MB-231 [1] (setting [3]) was 0 each time. For the same compound, the “IC50 of cell viability” value in the experiment on MDA-MB-231 [2] (siRNA: siBRCA1) and in the experiment with MDA-MB-231 [2] (setting [3]) was greater than 4170 nM each time.

As to `CC(C)(C)c1cc(NC(=O)Nc2ccc(-c3cn4c(n3)sc3cc(OCCN5CCOCC5)ccc34)cc2)no1` [AC220], the drug sensitivity score in the experiment with MDA-MB-231 [1] (siRNA: siBRCA1) was 0; with MDA-MB-231 [1] (setting [3]) it was 0.0185. The “IC50 of cell viability” value in the experiment with MDA-MB-231 [2] (siRNA: siBRCA1) and with MDA-MB-231 [2] (setting [3]) was greater than 4170 nM throughout.
